According to patent US4753951A, “Condensed imidazopyridine derivatives useful as psychotropic agents” (Shionogi & Co., Ltd., priority 1985, dated 1988):
Where two headings read alike, the source gives them in different places.

Columns and labels:
[1] = tested on: Pentyleneterazole-Induced Convulsion; assay: Antagonism of Pentyleneterazole-Induced Convulsion (agonistic activity); type: in vivo, male mice; conditions: Mus musculus; intravenous; mice; pentylenetetrazole 125 mg/kg, s.c.; 2-h observation; probit; read-out: ED50 (prevention of tonic convulsion and death)
Method: Antagonism of Pentyleneterazole-Induced Convulsion
(§1) Agonistic activity was evaluated in this test. Groups of 8-16 male mice were challenged with a dose of 125 mg/kg, s.c. of pentylenetetrazole immediately after intravenous injection of the test compound. The dose required to prevent tonic convulsion and death in 50% of the animal during a 2-h observation period was calculated by the probit method.

[2] = biological target: benzodiazepine receptor; assay: Binding Test to Benzodiazepine Receptor (inhibition of tritium labeled diazepam binding); parameters: species or system Wistar rats; conditions: 2nM tritium labeled diazepam; rat cerebral cortex; 0° C., 6 minutes; calculated from IC50
Method: Binding Test to Benzodiazepine Receptor
This test was carried out in the modified mehtod of Mohler et al. Science, 198, 849-851 (1977).
Receptor preparation was provided from the cerebral cortex of Wistar rats (male, 11 to 13 weeks age). Inhibitory action of the test compound on the specific binding of tritium labeled diazepam to the receptor was evaluated as follows. 2nM tritium labeled diazepam and an aqueous solution of the test compound at 5 or 6 concentrations were incubated with the receptor preparation at 0° C. for 6 minutes. The 50% inhibitory concentration (IC50) was measured by the concentration-response curve.
The inhibitory constant (Ki) was calculated according to the following equation, in which Kd is the dissociation constant of the tritium labeled diazepam and L is the concentration of the labeled ligand.

[3] = tested on: mice gripping the wire with hindpaws; assay: Traction Test; type: in vivo; conditions: Mus musculus, 0.5 h, read-out: Traction Test ED50
Method: The modified method of Courvoisier et al. (in "Psychotropic Drugs", ed. by S. Garattini & R. Ducrot. p 373. Elsevier Publishing Co., Amsterdam, 1957) was employed. Groups of 10 mice were made to hang onto a horizontal metal wire (diameter: 1 mm) by grasping and holding with their forepaws 30 minutes after oral administration of the test compound, and the number of mice gripping the wire with hindpaws within 10 sec was counted. The ED50 was calculated by the probit method.

[4] = tested on: conflict behavior; assay: Anticonflict Test; type: in vivo; conditions: Rattus norvegicus; oral; male Wistar rats; 1 hour observation starting 30 minutes after administration; probit; read-out: Anti-conflict activity ED50
Method: The modified method of Geller and Seifter (Psychopharmacol, 1, 482, 1960) was employed. Groups of 5 or more male Wistar rats with well-established conflict behavior were used. A dose was determined as positive when the numbuer of electric shocks (punishment) exceeded more than 12 during a 1 hour observation period starting 30 minutes after oral administration of the test compound. The ED50 was calculated by the probit method.

[5] = tested on: Pentylenetetrazole-Induced Convulsion; assay: Potentiation of Pentylenetetrazole-Induced Convulsion (inverse agonist activity); type: in vivo; conditions: Mus musculus; intravenous; mice; pentylenetetrazole 90 mg/kg s.c. (subconvulsive); 2-h observation; probit; read-out: ED50 (production of tonic convulsion and death)
Method: Potentiation of Pentylenetetrazole-Induced Convulsion
as §1, with “Inverse agonist” for “Agonistic”, “8-16” for “8-16 male”, “90 mg/kg.” for “125 mg/kg,”, “(a subconvulsive dose) immidiately” for “immediately”, “produce” for “prevent”, “animals” for “animal”

[6] = oral, mice, 30 minutes after administration, gripping within 10 sec, probit

| SMILES | ED50 [1] [mg/kg] | Ki [2] [nM] | other results |
| --- | --- | --- | --- |
| Cc1csc(-c2nc3cnc4cc(Cl)ccc4c3[nH]2)c1 [Compound C38] | 8.52 | 15.6 | – |
| COc1ccc(-c2nc3cnc4ccccc4c3[nH]2)cc1 [Compound C13] | 4.61 | 8.73 | – |
| Fc1ccccc1-c1nc2cnc3ccccc3c2[nH]1 [Compound C21] | 2.05 | 1.8 | – |
| Fc1ccc2c(c1)ncc1nc(-c3ccon3)[nH]c12 [Compound C60] | – | 0.495 | – |
| Cc1cc(-c2nc3cnc4ccc(F)cc4c3[nH]2)on1 [Compound C49] | 0.32 | 0.237 | ED50 [3, 6]: > 200 mg/kg; ED50 [4]: 1.19 mg/kg |
| Cc1cc(-c2nc3cnc4ccccc4c3[nH]2)on1 [Compound C45, 2-(3-methylisoxazol-5-yl)-1H-imidazo[4,5-c]quinoline] | 0.71 | 0.582 | ED50 [3, 6]: > 200 mg/kg; ED50 [4]: 2.68 mg/kg |
| Cc1cc(-c2nc3cnc4cc(F)ccc4c3[nH]2)on1 [Compound C48] | 0.59 | 0.907 | ED50 [3, 6]: > 200 mg/kg; ED50 [4]: 1.8 mg/kg |
| Fc1ccc(-c2nc3cnc4ccccc4c3[nH]2)cc1 [Compound C3, 2-(4-fluorophenyl)-1H-imidazo[4,5-c]quinoline] | 2.31 | 15.8 | – |
| Cc1cc2c(ncc3nc(-c4cccs4)[nH]c32)s1 [Compound F2, 2-(Thien-2-yl)-7-methyl-1H-imidazo[4,5-d]thieno[2,3-b]pyridine] | – | 31.8 | ED50 [5]: 0.13 mg/kg |
| Clc1ccc2c(c1)ncc1nc(-c3ccon3)[nH]c12 [Compound C59] | 3.01 | 1.23 | – |
| Cc1csc(-c2nc3cnc4ccccc4c3[nH]2)n1 [Compound C71] | – | 4.57 | ED50 [5]: 4.18 mg/kg |
| c1csc(-c2nc3cnc4sccc4c3[nH]2)c1 [Compound F7] | – | 725 | ED50 [5]: 0.5 mg/kg |
| CN1C(=O)CN=C(c2ccccc2)c2cc(Cl)ccc21 [Diazepam, reference compound] | – | – | ED50 ([3]; po): 5.06 mg/kg; ED50 [4]: 1.05 mg/kg |
| Fc1cccc(-c2nc3cnc4ccccc4c3[nH]2)c1 [Compound C20] | 3.9 | 27.7 | – |
| Cc1cc(-c2nc3cnc4ccccc4c3[nH]2)sn1 [Compound C68] | – | 1.19 | – |
| Cc1cc(-c2nc3cnc4ccccc4c3[nH]2)no1 [Compound C61] | 0.74 | 0.661 | – |
| Cc1cc(-c2nc3cnc4ccccc4c3[nH]2)ns1 [Compound C67] | – | 2.07 | – |
| c1csc(-c2nc3cnc4ccsc4c3[nH]2)c1 [Compound K5] | – | 10.1 | ED50 [5]: 0.54 mg/kg |
| Clc1ccc2c(c1)ncc1nc(-c3cccs3)[nH]c12 [Compound C35] | – | 19.5 | ED50 [5]: 1.76 mg/kg |
| c1ccc2c(c1)ncc1nc(-c3ccon3)[nH]c12 [Compound C58] | – | 0.525 | ED50 [5]: 1.65 mg/kg |
| CCc1cc(-c2nc3cnc4ccccc4c3[nH]2)on1 [Compound C46] | 1.2 | 0.97 | – |
| c1ccc2c(c1)ncc1nc(-c3cnns3)[nH]c12 [Compound C70] | – | 5.4 | – |
| Clc1ccc(-c2nc3cnc4ccccc4c3[nH]2)s1 [Compound C2] | 16 | 0.97 | – |
